{"source": "paper PMC8319579", "about": "“Aspergillomarasmine A inhibits metallo-β-lactamases by selectively sequestering Zn^2+” (The Journal of Biological Chemistry, 2021)", "key": {"New Delhi MBL-1 (NDM-1) [1]": {"target": "T1, New Delhi MBL-1 (NDM-1) (Klebsiella pneumoniae, UniProt C7C422)", "T1 construct": "gene blaNDM-1; His6-SUMO tag removed", "T1 sequence (C7C422 29-270 limits assumed)": "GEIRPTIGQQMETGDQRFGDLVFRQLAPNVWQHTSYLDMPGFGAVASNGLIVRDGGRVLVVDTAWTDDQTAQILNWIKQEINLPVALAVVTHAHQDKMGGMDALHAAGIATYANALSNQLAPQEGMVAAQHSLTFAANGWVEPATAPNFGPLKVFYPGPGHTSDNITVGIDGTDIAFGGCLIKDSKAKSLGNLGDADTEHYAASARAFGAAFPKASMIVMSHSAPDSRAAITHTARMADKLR", "test": "time-dependent covalent fluorescent labelling by SDS-PAGE; blocked by ZnSO4", "assay_type": "binding"}, "New Delhi MBL-1 (NDM-1) [2]": {"target": "T1, New Delhi MBL-1 (NDM-1)", "test": "steady-state hydrolysis by purified NDM-1, absorbance at […] nm", "assay_type": "biochemical"}}}
{"smiles": "CN(C)c1cccc2c(S(=O)(=O)NCCN3C(=O)C=CC3=O)cccc12", "note": "[DM, N-[2-(dansylamino)ethyl]maleimide]", "values": [{"measurement": "time-dependent covalent fluorescent labelling by SDS-PAGE; blocked by ZnSO4", "setting": "New Delhi MBL-1 (NDM-1) [1]", "value": "NDM-1 showed time-dependent fluorescent labeling by DM in response to AMA (Fig. 4B)."}]}
{"smiles": "O=C(Cc1cccs1)N[C@@H]1C(=O)N2C(C(=O)O)=C(/C=C/c3ccc([N+](=O)[O-])cc3[N+](=O)[O-])CS[C@H]12", "note": "[nitrocefin]", "values": [{"measurement": "steady-state hydrolysis by purified NDM-1, absorbance at 485 nm", "setting": "New Delhi MBL-1 (NDM-1) [2]", "value": "we determined the steady-state kinetics of NDM-1–catalyzed hydrolysis of nitrocefin over fixed time intervals"}]}
